Reference: publication PMC10324454, “Novel pyrimidine Schiff bases and their selenium-containing nanoparticles as dual inhibitors of CDK1 and tubulin polymerase: design, synthesis, anti-proliferative evaluation, and molecular modelling” (Journal of Enzyme Inhibition and Medicinal Chemistry, 2023)

Key:
[1] = in vitro; set-up: MTT cytotoxicity assay, formazan absorbance, viability IC50; settings: african green monkey, vero cells; read-out: IC50 Vero
Experimental: The cytotoxic activity of all synthesised compounds, both normal and nano-sized forms, was evaluated against three cancer cell lines, breast cancer (MCF-7), hepatocellular carcinoma (HepG-2), and non-small cell lung cancer (A549), while the normal Vero cell line was performed for the promising compounds 4, 6 and their nano-sized 4NPs, 6NPs, using the MTT assay according to the literature. The cell lines were obtained from ATCC (American Type Culture Collection). 5-Fluorouracil was used as a control. It is worth noting that freshly prepared nanoparticle-based compounds were used in each of the conducted experiments. The protocol of the MTT assay was illustrated in detail in the Supplementary File. S3 1.1. Biological activity 1.1.1. In vitro cytotoxicity assay The cytotoxic activity of all synthesized compounds, both normal and nano-sized forms, was evaluated against three cancer cell lines, breast cancer (MCF-7), hepatocellular carcinoma (HepG-2), and non-small cell lung cancer (A549), while the normal Vero cell line was performed for the promising compounds 4, 6 and their nano-sized 4NPs, 6NPs, using the MTT assay according to the literature. […] The cytotoxic activities of the examined compounds were quantified by inoculating a 96-well tissue culture plate with 1 X 10 5 cells / mL (100 uL/well) and incubating it at 37°C for 24 hours to develop a complete monolayer sheet. […]

[2] = test system: MCF-7; test: cells; set-up: MTT cytotoxicity assay, formazan absorbance, viability IC50; settings: Homo sapiens, MCF7
Experimental: (§1) The cytotoxic activity of all synthesised compounds, both normal and nano-sized forms, was evaluated against three cancer cell lines, breast cancer (MCF-7), hepatocellular carcinoma (HepG-2), and non-small cell lung cancer (A549), while the normal Vero cell line was performed for the promising compounds 4, 6 and their nano-sized 4NPs, 6NPs, using the MTT assay according to the literature. The cell lines were obtained from ATCC (American Type Culture Collection). 5-Fluorouracil was used as a control. It is worth noting that freshly prepared nanoparticle-based compounds were used in each of the conducted experiments. The protocol of the MTT assay was illustrated in detail in the Supplementary File. S3 1.1. Biological activity 1.1.1. In vitro cytotoxicity assay The cytotoxic activity of all synthesized compounds, both normal and nano-sized forms, was evaluated against three cancer cell lines, breast cancer (MCF-7), hepatocellular carcinoma (HepG-2), and non-small cell lung cancer (A549), while the normal Vero cell line was performed for the promising compounds 4, 6 and their nano-sized 4NPs, 6NPs, using the MTT assay according to the literature. The cell lines were obtained from ATCC (American Type Culture Collection). 5-Fluorouracil was used as a reference drug. The cytotoxic activities of the examined compounds were quantified by inoculating a 96-well tissue culture plate with 1 X 10 5 cells / mL (100 uL/well) and incubating it at 37°C for 24 hours to develop a complete monolayer sheet. After forming a confluent sheet of cells, the growth medium was decanted from 96-well microtiter plates, and the cell monolayer was washed twice with wash media. Two-fold dilutions of tested samples were made in RPMI medium with 2% serum (maintenance medium), and 0.1 mL of each dilution was tested in different wells, with three wells serving as controls and receiving only maintenance medium. Following that, the plate was incubated at 37°C and examined. Cells were investigated for any physical signs of toxicity, such as partial or complete monolayer loss, rounding, shrinkage, or cell granulation. MTT solution was prepared (5mg/ml in PBS) (BIO BASIC CANADA INC), and 20 uL MTT solution was added to each well. After 5 minutes on a shaking table at 150 rpm to thoroughly mix the MTT into the media, it was incubated (37 ° C, 5% CO2) for 4 hours to allow the MTT to be metabolized. Formazan (MTT metabolic product) was resuspended in 200 uL DMSO and shaken at 150 rpm for 5 minutes to t

[3] = test system: A549; test: cells; set-up: MTT cytotoxicity assay, formazan absorbance, viability IC50; settings: Homo sapiens
Experimental: as §1

[4] = test system: HepG-2; test: cells; set-up: MTT cytotoxicity assay, formazan absorbance, viability IC50; settings: Homo sapiens, HepG2
Experimental: as §1

[5] = target: T1, CDK1 (Homo sapiens, UniProt P06493); test: in vitro CDK1/cyclin B1 kinase inhibition assay (kit); format: biochemical; settings: read-out: CDK1 (IC50 μM ± SD)
T1 construct: with cyclin B1

[6] = target: T2, tubulin (tubulin polymerase, colchicine binding site); test: colchicine-tubulin competition-binding assay; settings: read-out: Tubulin polymerase (CBS) (IC50 μM ± SD)
T2 construct: with alpha/beta-tubulin heterodimer

T1 sequence (P06493 whole entry): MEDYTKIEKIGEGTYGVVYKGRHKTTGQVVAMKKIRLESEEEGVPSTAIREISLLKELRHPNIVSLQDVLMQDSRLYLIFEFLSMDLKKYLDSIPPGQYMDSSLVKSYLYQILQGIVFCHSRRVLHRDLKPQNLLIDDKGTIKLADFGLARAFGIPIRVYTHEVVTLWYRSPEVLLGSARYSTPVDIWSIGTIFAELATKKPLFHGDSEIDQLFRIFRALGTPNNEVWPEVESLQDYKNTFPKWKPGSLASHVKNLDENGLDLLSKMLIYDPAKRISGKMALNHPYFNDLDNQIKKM
T1 sequence (P14635 whole entry partner): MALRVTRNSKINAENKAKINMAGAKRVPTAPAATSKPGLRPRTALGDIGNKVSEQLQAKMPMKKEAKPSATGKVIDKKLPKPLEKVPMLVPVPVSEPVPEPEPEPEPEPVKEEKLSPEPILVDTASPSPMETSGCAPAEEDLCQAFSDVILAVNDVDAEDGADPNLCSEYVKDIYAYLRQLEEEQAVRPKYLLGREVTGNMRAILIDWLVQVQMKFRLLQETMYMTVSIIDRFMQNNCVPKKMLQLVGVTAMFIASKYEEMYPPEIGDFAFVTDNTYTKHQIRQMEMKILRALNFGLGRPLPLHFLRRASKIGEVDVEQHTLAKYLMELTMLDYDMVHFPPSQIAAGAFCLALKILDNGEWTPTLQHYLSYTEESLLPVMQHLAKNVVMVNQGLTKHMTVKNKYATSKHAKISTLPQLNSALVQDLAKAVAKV

SMILES	IC50 [4]	other results
O=c1[nH]cc(F)c(=O)[nH]1 [5-FU, 5-fluorouracil]	1.36 µM	CC50 [1]: 3.04 µM; IC50 [2]: 1.82 µM; IC50 [3]: 0.76 µM
CN(C)c1ccc(/C=N/c2c(N)n(C)c(=O)[nH]c2=O)cc1 [compound 4, (E)-6-amino-5-((4-(dimethylamino)benzylidene)amino)-1-methylpyrimidine-2,4(1H,3H)-dione]	1.07 ± 0.03 µM	IC50 [5]: 2.18 ± 0.06 µM; IC50 [6]: 1.93 ± 0.119 µM
Cn1c(N)c(/N=C/c2ccc(O)cc2)c(=O)[nH]c1=O [compound 5, (E)-6-amino-5-((4-hydroxybenzylidene)amino)-1-methylpyrimidine-2,4(1H,3H)-dione]	4.07 ± 0.08 µM	–
CCn1c(N)c(/N=C/c2ccc(O)cc2)c(=O)[nH]c1=O [compound 6, (E)-6-amino-1-ethyl-5-((4-hydroxybenzylidene)amino)pyrimidine-2,4(1H,3H)-dione]	1.97 ± 0.05 µM	–
CCn1c(N)c(/N=C/c2ccc([N+](=O)[O-])cc2)c(=O)[nH]c1=O [compound 7, (E)-6-amino-1-ethyl-5-((4-nitrobenzylidene)amino)pyrimidine-2,4(1H,3H)-dione]	3.38 ± 0.11 µM	–
CCn1c(N)c(/N=C/c2ccccc2[N+](=O)[O-])c(=O)[nH]c1=O [compound 8, (E)-6-amino-1-ethyl-5-((2-nitrobenzylidene)amino)pyrimidine-2,4(1H,3H)-dione]	2.1 ± 0.09 µM	–
CCn1c(N)c(/N=C/c2ccc(Br)cc2)c(=O)[nH]c1=O [compound 9, (E)-6-amino-5-((4-bromobenzylidene)amino)-1-ethylpyrimidine-2,4(1H,3H)-dione]	3.47 ± 0.09 µM	–
